Assay [1] concerns human SKM-1 acute myeloid leukemia cells. Briefly: SKM-1 antiproliferation cell-based assay (ATPlite). Conditions: Homo sapiens, SKM-1, 96 h, SKM-1 antiproliferation assay, 4 days, Table C2. Put shortly:
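Log-phase cells in RPMI 1640/15% FBS were seeded at 34722 cells/mL and exposed for 4 days to nine-concentration DMSO serial dilutions in triplicate. Viability was read as ATP luminescence (ATPlite 1step), and IC50 values came from variable-slope non-linear regression.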
(In general: ATP-based viability assays read luminescence as a measure of living cells.)

The target of assay [2] is T1, human BRD4 bromodomain II (Homo sapiens, UniProt O60885).
T1 construct: human BRD4 bromodomain II [based on Genbank NM_058243, residues 349-460]; host or cells: E. coli
Briefly: Bromodomain binding assay (AlphaScreen), BRD4 BDII. As to conditions: AlphaScreen assay, Table C2; read-out: BRD4 BDII IC50. The method, boiled down:
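AlphaScreen competition: His6-BRD4 BDI (aa 44-170) or BDII (aa 349-460) vs biotin-H4(1-21) K5/K8/K12/K16Ac peptide; Ni-chelate acceptor/streptavidin donor beads. HEPES pH 7.5, NaCl, CHAPS, BSA, 1% DMSO; RT. 10-pt 3-fold titration, % peptide binding fitted → IC50.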
A general note: Bead proximity is the source of the signal in Alpha formats.

Molecules are shown by their SMILES.

What is called GI50 is the concentration giving 50% growth inhibition. Broadly, the IC50 is the concentration that inhibits the measured activity by half. The molecule `CC1CCN(c2ccc(-c3cccc(-c4ccnc(N5CCNCC5)c4)c3O)cc2Cl)C1=O` (stereo not shown) [Example 328, 1-(3-chloro-2′-hydroxy-3′-(2-(piperazin-1-yl)pyridin-4-yl)-[1,1′-biphenyl]-4-yl)-3-methylpyrrolidin-2-one] came in with a GI50 in assay [1] of 300 to 3000 nM. Moreover, the IC50 in assay [2] lay in the range of 1 to 10 nM.

In turn, `CC1(C)CCN(c2ccc(-c3cccc(-c4ccnc(N5CCNCC5)c4)c3O)cc2Cl)C1=O` [Example 329, 1-(3-chloro-2′-hydroxy-3′-(2-(piperazin-1-yl)pyridin-4-yl)-[1,1′-biphenyl]-4-yl)-3,3-dimethylpyrrolidin-2-one] yielded a GI50 in assay [1] of 300 to 3000 nM. Moreover, in assay [2], the 50% inhibitory concentration (IC50) was above 100 nM.

For the molecule `CC(=O)Nc1ccc(-c2cccc(-c3ccc(N4CCN(C)C4=O)c(Cl)c3)c2O)cc1N1CCNCC1` [Example 330, N-(3″-chloro-2′-hydroxy-4″-(3-methyl-2-oxoimidazolidin-1-yl)-3-(piperazin-1-yl)-[1,1′:3′,1″-terphenyl]-4-yl)acetamide], the GI50 in assay [1] lay within 30 to 300 nM. In addition, the IC50 in assay [2] was 1 to 10 nM.

As for `CN1CCN(c2ccc(-c3cccc(-c4cc(C#N)cc(N5CCNCC5)c4)c3O)cc2Cl)C1=O` [Example 331, 3″-chloro-2′-hydroxy-4″-(3-methyl-2-oxoimidazolidin-1-yl)-5-(piperazin-1-yl)-[1,1′:3′,1″-terphenyl]-3-carbonitrile], the concentration for 50% growth inhibition (GI50) in assay [1] was 30 to 300 nM. Besides, in assay [2], the IC50 is 1 to 10 nM.

In turn, `CN1CCN(c2ccc(-c3cc(C(F)(F)F)cc(-c4ccnc(N5CCNCC5)c4)c3O)cc2Cl)C1=O` [Example 332, 1-(3-chloro-2′-hydroxy-3′-(2-(piperazin-1-yl)pyridin-4-yl)-5′-(trifluoromethyl)-[1,1′-biphenyl]-4-yl)-3-methylimidazolidin-2-one] displayed a concentration for 50% growth inhibition (GI50) in assay [1] of at least 3000 nM. Moreover, the IC50 in assay [2] lay within 10 to 100 nM.

In assay [1], `CC(=O)Nc1ccc(-c2cccc(-c3cc(NCCO)nc(N4CCNCC4)c3)c2O)cc1F` [Example 333, N-(3-fluoro-2′-hydroxy-3′-(2-((2-hydroxyethyl)amino)-6-(piperazin-1-yl)pyridin-4-yl)-[1,1′-biphenyl]-4-yl)acetamide] displayed a GI50 of 30 to 300 nM. Also, the IC50 in assay [2] is 1 to 10 nM.

On to `CN1CCN(c2ccc(-c3cccc(-c4cncc(N5CC6(CNC6)C5)c4)c3O)cc2F)C1=O` [Example 334, 1-(3′-(5-(2,6-diazaspiro[3.3]heptan-2-yl)pyridin-3-yl)-3-fluoro-2′-hydroxy-[1,1′-biphenyl]-4-yl)-3-methylimidazolidin-2-one], for which the GI50 in assay [1] lay within 300 to 3000 nM. The IC50 in assay [2] was 10 to 100 nM.

As to `CN1CCN(c2ccc(-c3cccc(-c4cncc(N5CC6(CNC6)C5)c4)c3O)cc2Cl)C1=O` [Example 335, 1-(3′-(5-(2,6-diazaspiro[3.3]heptan-2-yl)pyridin-3-yl)-3-chloro-2′-hydroxy-[1,1′-biphenyl]-4-yl)-3-methylimidazolidin-2-one], the concentration for 50% growth inhibition (GI50) in assay [1] lay within 300 to 3000 nM. Further, the IC50 in assay [2] was 1 to 10 nM.

For `CC(=O)Nc1ccc(-c2cccc(-c3ccc(C(F)(F)F)c(N4CCNCC4)c3)c2O)cc1F` [Example 336, N-(3-fluoro-2′-hydroxy-3″-(piperazin-1-yl)-4″-(trifluoromethyl)-[1,1′:3′,1″-terphenyl]-4-yl)acetamide acetate], in assay [1], the GI50 is 300 to 3000 nM. Moreover, the IC50 in assay [2] is 10 to 100 nM.

In assay [1], `Cc1cc(-c2cc(C)nc(N3CCNCC3)c2)c(O)c(-c2ccc(N3CCN(C)C3=O)c(Cl)c2)c1` [Example 337, 1-(3-chloro-2′-hydroxy-5′-methyl-3′-(2-methyl-6-(piperazin-1-yl)pyridin-4-yl)-[1,1′-biphenyl]-4-yl)-3-methylimidazolidin-2-one] displayed a concentration for 50% growth inhibition (GI50) of 30 to 300 nM. Besides, in assay [2], the IC50 was 1 to 10 nM.

Turning to `Cc1cc(-c2cccc(-c3ccc(N4CCN(C)C4=O)c(Cl)c3)c2O)cc(N2CCNCC2)n1` [Example 338, 1-(3-chloro-2′-hydroxy-3′-(2-methyl-6-(piperazin-1-yl)pyridin-4-yl)-[1,1′-biphenyl]-4-yl)-3-methylimidazolidin-2-one], in assay [1], the 50% growth inhibitory concentration (GI50) was 30 to 300 nM. Besides, the half-maximal inhibitory concentration (IC50) in assay [2] is 1 to 10 nM.

On to `COc1cc(-c2cccc(-c3ccc(NC(C)=O)c(F)c3)c2O)cc(N2CCNCC2)n1` [Example 339, N-(3-fluoro-2′-hydroxy-3′-(2-methoxy-6-(piperazin-1-yl)pyridin-4-yl)-[1,1′-biphenyl]-4-yl)acetamide], for which, in assay [1], the GI50 is 300 to 3000 nM. In addition, the IC50 in assay [2] was in the range of 10 to 100 nM.

In assay [1], `CC1CC(=O)N(c2ccc(-c3cccc(-c4ccnc(N5CCNCC5)c4)c3O)cc2Cl)C1` (stereo not shown) [Example 340, 1-(3-chloro-2′-hydroxy-3′-(2-(piperazin-1-yl)pyridin-4-yl)-[1,1′-biphenyl]-4-yl)-4-methylpyrrolidin-2-one] came in with a GI50 of 300 to 3000 nM. Also, in assay [2], the IC50 was above 100 nM.

For `O=C1N(c2ccc(-c3cccc(-c4ccnc(N5CCNCC5)c4)c3O)cc2Cl)CCC12CC2` [Example 341, 5-(3-chloro-2′-hydroxy-3′-(2-(piperazin-1-yl)pyridin-4-yl)-[1,1′-biphenyl]-4-yl)-5-azaspiro[2.4]heptan-4-one], the GI50 in assay [1] fell in the range of 300 to 3000 nM. Besides, in assay [2], the IC50 fell in the range of 10 to 100 nM.

In the case of `CN1CCN(c2ccc(-c3cccc(-c4cc(N5CCNCC5)c(=O)n(C)c4)c3O)cc2Cl)C1=O` [Example 342, 5-(3′-chloro-2-hydroxy-4′-(3-methyl-2-oxoimidazolidin-1-yl)-[1,1′-biphenyl]-3-yl)-1-methyl-3-(piperazin-1-yl)pyridin-2(1H)-one], in assay [1], the 50% growth inhibitory concentration (GI50) was 30 to 300 nM. Besides, in assay [2], the IC50 is 1 to 10 nM.

The molecule `CN1CCN(c2ccc(-c3cccc(-c4cnnc(N5CCNCC5)c4)c3O)cc2Cl)C1=O` [Example 343, 1-(3-chloro-2′-hydroxy-3′-(6-(piperazin-1-yl)pyridazin-4-yl)-[1,1′-biphenyl]-4-yl)-3-methylimidazolidin-2-one] showed a GI50 in assay [1] of 30 to 300 nM. The half-inhibitory concentration (IC50) in assay [2] lay in the range of 1 to 10 nM.

In turn, `CN1CCN(c2ccc(-c3cccc(-c4cc(-c5ccccc5)nc(N5CCNCC5)c4)c3O)cc2Cl)C1=O` [Example 344, 1-(3-chloro-2′-hydroxy-3′-(2-phenyl-6-(piperazin-1-yl)pyridin-4-yl)-[1,1′-biphenyl]-4-yl)-3-methylimidazolidin-2-one] gave a GI50 in assay [1] of 30 to 300 nM. In addition, in assay [2], the IC50 is 10 to 100 nM.

`CCC1CCN(c2ccc(-c3cccc(-c4ccnc(N5CCNCC5)c4)c3O)cc2Cl)C1=O` (stereo not shown) [Example 345, 1-(3-chloro-2′-hydroxy-3′-(2-(piperazin-1-yl)pyridin-4-yl)-[1,1′-biphenyl]-4-yl)-3-ethylpyrrolidin-2-one] gave a GI50 in assay [1] of 300 to 3000 nM. In addition, in assay [2], the IC50 was above 100 nM.

In the case of `CCN1CCN(c2ccc(-c3cccc(-c4ccnc(N5CCNCC5)c4)c3O)cc2Cl)C1=O` [Example 346, 1-(3-chloro-2′-hydroxy-3′-(2-(piperazin-1-yl)pyridin-4-yl)-[1,1′-biphenyl]-4-yl)-3-ethylimidazolidin-2-one], in assay [1], the concentration for 50% growth inhibition (GI50) lay in the range of 300 to 3000 nM. Also, in assay [2], the half-inhibitory concentration (IC50) is above 100 nM.

Turning to `CN1CCN(c2ccc(-c3cc(F)cc(-c4ccnc(N(C)CCN)c4)c3O)cc2Cl)C1=O` [Example 347, 1-(3′-(2-((2-aminoethyl)(methyl)amino)pyridin-4-yl)-3-chloro-5′-fluoro-2′-hydroxy-[1,1′-biphenyl]-4-yl)-3-methylimidazolidin-2-one], in assay [1], the GI50 fell in the range of 300 to 3000 nM. Besides, in assay [2], the IC50 lay in the range of 10 to 100 nM.

For the molecule `CC(=O)Nc1ccc(-c2cccc(-c3cc(N)nc(N4CCNCC4)c3)c2O)cc1F` [Example 348, N-(3′-(2-amino-6-(piperazin-1-yl)pyridin-4-yl)-3-fluoro-2′-hydroxy-[1,1′-biphenyl]-4-yl)acetamide], in assay [1], the GI50 lay in the range of 30 to 300 nM. Besides, in assay [2], the concentration for half-maximal inhibition (IC50) fell in the range of 1 to 10 nM.

In turn, `CNC(=O)c1cc(-c2cccc(-c3ccc(NC(C)=O)c(F)c3)c2O)cc(N2CCNCC2)n1` [Example 349, 4-(4′-acetamido-3′-fluoro-2-hydroxy-[1,1′-biphenyl]-3-yl)-N-methyl-6-(piperazin-1-yl)picolinamide] gave a concentration for 50% growth inhibition (GI50) in assay [1] of 300 to 3000 nM. For the same molecule, in assay [2], the IC50 lay in the range of 10 to 100 nM.

For the molecule `CN1CCN(c2ccc(-c3cc(F)cc(-c4ccnc(N5CCC(N)CC5)c4)c3O)cc2Cl)C1=O` [Example 350, 1-(3′-(2-(4-aminopiperidin-1-yl)pyridin-4-yl)-3-chloro-5′-fluoro-2′-hydroxy-[1,1′-biphenyl]-4-yl)-3-methylimidazolidin-2-one], in assay [1], the GI50 lay in the range of 30 to 300 nM. Further, the IC50 in assay [2] was in the range of 10 to 100 nM.

In assay [1], `CC(=O)Nc1ccc(-c2cccc(-c3cc(OC4CC4)nc(N4CCNCC4)c3)c2O)cc1F` [Example 351, N-(3′-(2-cyclopropoxy-6-(piperazin-l-yl)pyridin-4-yl)-3-fluoro-2′-hydroxy-[1,1′-biphenyl]-4-yl)acetamide] registered a GI50 of 300 to 3000 nM. Further, the IC50 in assay [2] fell in the range of 10 to 100 nM.

The molecule `CN1CCN(c2ccc(-c3cc(F)cc(-c4ccnc(N5CC6(CNC6)C5)c4)c3O)cc2Cl)C1=O` [Example 352, 1-(3′-(2-(2,6-diazaspiro[3.3]heptan-2-yl)pyridin-4-yl)-3-chloro-5′-fluoro-2′-hydroxy-[1,1′-biphenyl]-4-yl)-3-methylimidazolidin-2-one] came in with a GI50 in assay [1] of 300 to 3000 nM. In addition, the half-maximal inhibitory concentration (IC50) in assay [2] fell in the range of 10 to 100 nM.

`CN1CCN(c2ccc(-c3cc(F)cc(-c4ccnc(N5CC[C@H](N)C5)c4)c3O)cc2Cl)C1=O` [Example 353, (S)-1-(3′-(2-(3-aminopyrrolidin-1-yl)pyridin-4-yl)-3-chloro-5′-fluoro-2′-hydroxy-[1,1′-biphenyl]-4-yl)-3-methylimidazolidin-2-one] displayed a GI50 in assay [1] of 30 to 300 nM. Further, the IC50 in assay [2] was 1 to 10 nM.

These data come from patent publication US20250179059A1 (The Regents of the University of California, priority 2021, published 2025).
